Data: ChEMBL document CHEMBL1201862, “PubChem BioAssay data set” (2004)
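Exposure lasted 48 hours, with cells grown in 96-well plates and compounds tested at five concentrations. At the GI50, growth is halved.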 Active and inactive are the calls of the source. Rule as the data show it: active = GI50 up to about 1.1 µM and inactive = higher.

Tests used:
Assay in all cases: growth of human tumour cells (NCI), 48 h
HL-60 = system: HL-60
786-0 = system: 786-0
SK-MEL-2 = system: SK-MEL-2
NCI-H226 = system: NCI-H226
CCRF-CEM = system: CCRF-CEM
TK-10 = system: TK-10
ACHN = system: ACHN
NCI-H23 = system: NCI-H23
Hs-578T = system: Hs-578T
OVCAR-5 = system: OVCAR-5
T47D = system: T47D
K562 = system: K562
SK-MEL-5 = system: SK-MEL-5
SR = system: SR
CAKI-1 = system: CAKI-1
MOLT-4 = system: MOLT-4
SF-539 = system: SF-539

Measured: GI50

O=C(O)CNCCc1ccccc1
inactive: HL-60 > 100 µM | 786-0 > 100 µM | SK-MEL-2 > 100 µM | NCI-H226 > 100 µM | CCRF-CEM > 100 µM | TK-10 > 100 µM | ACHN > 100 µM | NCI-H23 > 100 µM | Hs-578T > 100 µM | OVCAR-5 > 100 µM | T47D > 100 µM | K562 > 100 µM | SK-MEL-5 > 100 µM | SR > 100 µM | CAKI-1 > 100 µM

CCOC(=O)C(O)(NC(C)=O)C(F)(F)F (centres undefined)
inactive: HL-60 43.8 µM | SK-MEL-2 > 100 µM | NCI-H226 > 100 µM | CCRF-CEM > 100 µM | MOLT-4 > 100 µM | TK-10 > 100 µM | ACHN > 100 µM | NCI-H23 > 100 µM | Hs-578T > 100 µM | OVCAR-5 > 100 µM | T47D > 100 µM | K562 > 100 µM | SK-MEL-5 > 100 µM | SF-539 > 100 µM | SR 7.24 µM | CAKI-1 > 100 µM

Cc1ccnc(NC(=S)Nc2ccccc2Cl)c1
inactive: HL-60 > 100 µM | 786-0 > 100 µM | SK-MEL-2 > 100 µM | NCI-H226 63.5 µM | CCRF-CEM > 100 µM | MOLT-4 > 100 µM | TK-10 > 100 µM | Hs-578T 44.7 µM | OVCAR-5 > 100 µM | T47D > 100 µM | K562 > 100 µM | SK-MEL-5 > 100 µM | SF-539 > 100 µM | SR > 100 µM | CAKI-1 > 100 µM

CCCC(C(=O)Nc1cccc2nc[nH]c12)C(=O)OCC (centres undefined)
inactive: HL-60 > 100 µM | 786-0 > 100 µM | SK-MEL-2 > 100 µM | NCI-H226 > 100 µM | MOLT-4 > 100 µM | TK-10 > 100 µM | ACHN > 100 µM | Hs-578T > 100 µM | OVCAR-5 > 100 µM | T47D > 100 µM | K562 > 100 µM | SF-539 > 100 µM | SR > 100 µM

CCOP(=O)(OCC)C(C)(CC)N/C(N)=N/C#N (centres undefined)
inactive: HL-60 > 100 µM | 786-0 > 100 µM | SK-MEL-2 > 100 µM | NCI-H226 > 100 µM | CCRF-CEM > 100 µM | MOLT-4 > 100 µM | TK-10 > 100 µM | ACHN > 100 µM | NCI-H23 > 100 µM | Hs-578T > 100 µM | OVCAR-5 > 100 µM | T47D > 100 µM | K562 > 100 µM | SK-MEL-5 > 100 µM | SF-539 > 100 µM | SR > 100 µM

CCCCC1=NNC(=O)C1
inactive: HL-60 > 100 µM | 786-0 > 100 µM | SK-MEL-2 > 100 µM | NCI-H226 > 100 µM | CCRF-CEM > 100 µM | MOLT-4 > 100 µM | ACHN > 100 µM | NCI-H23 > 100 µM | Hs-578T 4.9 µM | OVCAR-5 > 100 µM | T47D > 100 µM | SK-MEL-5 > 100 µM | SF-539 > 100 µM | SR > 100 µM | CAKI-1 > 100 µM

Cc1ccc(-c2n[nH]c(=O)n2N2C(=O)c3ccccc3C2=O)cc1
inactive: HL-60 > 100 µM | 786-0 > 100 µM | SK-MEL-2 > 100 µM | NCI-H226 > 100 µM | MOLT-4 > 100 µM | TK-10 > 100 µM | ACHN > 100 µM | NCI-H23 > 100 µM | Hs-578T > 100 µM | OVCAR-5 > 100 µM | T47D 68.9 µM | K562 > 100 µM | SK-MEL-5 > 100 µM | SF-539 > 100 µM | SR > 100 µM | CAKI-1 > 100 µM

O=C(Nc1ccccc1)N1CC(CN2CCN(c3ccccc3)CC2)OC1=O (centres undefined)
inactive: HL-60 > 100 µM | 786-0 > 100 µM | SK-MEL-2 > 100 µM | NCI-H226 > 100 µM | CCRF-CEM > 100 µM | MOLT-4 > 100 µM | TK-10 > 100 µM | ACHN > 100 µM | NCI-H23 > 100 µM | Hs-578T 67 µM | OVCAR-5 > 100 µM | T47D > 100 µM | K562 > 100 µM | SK-MEL-5 > 100 µM | SR > 100 µM | CAKI-1 > 100 µM

O=C1C[C@@]23CCC4(CC2CCC[C@H]3O1)OCCO4 (some centres undefined)
inactive: HL-60 > 100 µM | 786-0 > 100 µM | SK-MEL-2 > 100 µM | NCI-H226 > 100 µM | MOLT-4 > 100 µM | ACHN > 100 µM | NCI-H23 > 100 µM | Hs-578T > 100 µM | OVCAR-5 > 100 µM | T47D > 100 µM | K562 > 100 µM | SK-MEL-5 > 100 µM | SF-539 > 100 µM | SR > 100 µM

CN(C)/C=C/c1nnnn1-c1ccc(I)cc1
inactive: HL-60 6.21 µM | 786-0 35.1 µM | NCI-H226 22.8 µM | CCRF-CEM 10.6 µM | MOLT-4 15.1 µM | TK-10 30.5 µM | ACHN 22 µM | NCI-H23 24.7 µM | Hs-578T 13.6 µM | OVCAR-5 23.7 µM | T47D 9.44 µM | K562 19 µM | SK-MEL-5 16.6 µM | SF-539 19.5 µM | SR 16.4 µM | CAKI-1 22.3 µM

CC[C@@]12CCC(=S)N(CCSc3ccccc3)[C@@H]1c1c(n(S(=O)(=O)c3ccc(OC)cc3)c3ccccc13)CC2
inactive: HL-60 > 100 µM | 786-0 63.1 µM | SK-MEL-2 > 100 µM | NCI-H226 68.1 µM | CCRF-CEM > 100 µM | MOLT-4 > 100 µM | TK-10 52 µM | NCI-H23 > 100 µM | Hs-578T > 100 µM | OVCAR-5 > 100 µM | T47D > 100 µM | K562 > 100 µM | SK-MEL-5 > 100 µM | SF-539 88.1 µM | SR > 100 µM | CAKI-1 > 100 µM

CSc1c(C#N)c(=O)n(N)c2[nH]nc(C)c12
inactive: HL-60 > 100 µM | 786-0 > 100 µM | SK-MEL-2 > 100 µM | NCI-H226 > 100 µM | CCRF-CEM > 100 µM | MOLT-4 > 100 µM | TK-10 > 100 µM | NCI-H23 > 100 µM | Hs-578T > 100 µM | T47D > 100 µM | K562 > 100 µM | SK-MEL-5 > 100 µM | SF-539 > 100 µM | SR > 100 µM | CAKI-1 45.2 µM

COC(=O)CNCC1OC2OC(C)(C)OC2C1N=[N+]=[N-] (centres undefined)
inactive: HL-60 > 100 µM | 786-0 > 100 µM | SK-MEL-2 > 100 µM | NCI-H226 > 100 µM | CCRF-CEM > 100 µM | MOLT-4 > 100 µM | TK-10 > 100 µM | ACHN > 100 µM | Hs-578T > 100 µM | OVCAR-5 > 100 µM | T47D > 100 µM | K562 > 100 µM | SK-MEL-5 > 100 µM | SF-539 > 100 µM | SR > 100 µM | CAKI-1 > 100 µM
